The text below walks through data of US20230143612A1 (Arbutus Biopharma Corporation, priority 2020, published 2023).

PD-L1 His protein / PD-1 Fc protein, sequence (Q9NZQ7 19-238 limits assumed): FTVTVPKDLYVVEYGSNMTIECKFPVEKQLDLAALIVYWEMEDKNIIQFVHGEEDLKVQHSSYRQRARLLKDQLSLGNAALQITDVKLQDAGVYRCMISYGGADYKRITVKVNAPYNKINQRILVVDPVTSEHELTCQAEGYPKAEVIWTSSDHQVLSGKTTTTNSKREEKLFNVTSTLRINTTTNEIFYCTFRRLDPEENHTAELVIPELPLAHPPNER

The assay addresses PD-L1 His protein / PD-1 Fc protein (Homo sapiens, UniProt Q9NZQ7). The assay is described as follows: HTRF Assay (PD-1/PD-L1 interaction). It is filed as binding. The settings on record: PD-L1 His 6 nM, PD-1 Fc 6 nM. A digest of the protocol:
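HTRF: PD-L1 His (6 nM final), compound (3-fold dilutions, 20 μM to 0.001 μM final) and PD-1 Fc (6 nM final) preincubated 15 min at room temperature. Anti-human IgG-XL665 and anti-6HIS Tb cryptate (mixed at 6.7 nM and 0.35 nM) then added for 1 h at room temperature before reading.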
For orientation: Time-resolved FRET reads energy transfer from a long-lived donor to a nearby acceptor.
For orientation: IC50 means the concentration at which inhibition is half-maximal. Compound `COc1nc(-c2cccc(-c3cccc(-c4ccn5nc(CNC[C@@H]6CCC(=O)N6)cc5n4)c3Cl)c2Cl)ccc1CNC[C@@H]1CCC(=O)N1` [Example 82, (S)-5-((((6-(2,2′-Dichloro-3′-(2-(((((S)-5-oxopyrrolidin-2-yl)methyl)amino)methyl)pyrazolo[1,5-a]pyrimidin-5-yl)-[1,1′-biphenyl]-3-yl)-2-methoxypyridin-3-yl)methyl)amino)methyl)pyrrolidin-2-one] came in with an IC50 of 9.9 nM.

Regarding `Cc1c(-c2ccn3c(=O)c(CNC[C@@H]4CCC(=O)N4)cnc3c2)cccc1-c1cccc(-c2ccc(CNC[C@@H]3CCC(=O)N3)c(OC(F)(F)F)c2)c1Cl` [Example 88, 8-(2′-Chloro-2-methyl-4″-(((((S)-5-oxopyrrolidin-2-yl)methyl)amino)methyl)-3″-(trifluoromethoxy)-[1,1′:3′,1″-terphenyl]-3-yl)-3-(((((S)-5-oxopyrrolidin-2-yl)methyl)amino)methyl)-4H-pyrido[1,2-a]pyrimidin-4-one], the IC50 stood at 11 nM.

As to `COc1nc(-c2cccc(-c3cccc(-c4ccc5c(n4)CCCC5NC[C@H](C)O)c3Cl)c2Cl)ccc1CNC[C@@H]1CCC(=O)N1` (mixture of isomers) [Example 390, (5S)-5-((((6-(2,2′-Dichloro-3′-(5-(((S)-2-hydroxypropyl)amino)-5,6,7,8-tetrahydroquinolin-2-yl)-[1,1′-biphenyl]-3-yl)-2-methoxypyridin-3-yl)methyl)amino)methyl)pyrrolidin-2-one], the IC50 was 6.5 nM.

Take `COc1cc(-c2cccc(-c3cccc(-c4ccc(CNC[C@@H]5CCC(=O)N5)c(OC)n4)c3Cl)c2Cl)cc2c1CN(C[C@@H](C)O)CC2` [Example 419, (S)-5-((((6-(2,2′-Dichloro-3′-(2-((R)-2-hydroxypropyl)-8-methoxy-1,2,3,4-tetrahydroisoquinolin-6-yl)-[1,1′-biphenyl]-3-yl)-2-methoxypyridin-3-yl)methyl)amino)methyl)pyrrolidin-2-one]: half-maximal inhibition (IC50) required 26 nM.

Regarding `COc1nc(-c2cccc(-c3cccc(-c4ccc5c(c4F)CN(C[C@@H]4CCC(=O)N4)CC5)c3Cl)c2Cl)ccc1CNC[C@@H]1CCC(=O)N1` [Example 428, (S)-5-((7-(2,2′-Dichloro-3′-(6-methoxy-5-(((((S)-5-oxopyrrolidin-2-yl)methyl)-amino)methyl)-pyridin-2-yl)-[1,1′-biphenyl]-3-yl)-8-fluoro-3,4-dihydroisoquinolin-2(1H)-yl)methyl)-pyrrolidin-2-one], the IC50 came to 140 nM.

`COc1nc(-c2cccc(-c3cccc(-c4ccn5c(=O)c(CNCC6(CO)CC6)cnc5c4)c3Cl)c2Cl)ccc1CNC[C@@H]1CCC(=O)N1` [Example 301, (S)-8-(2,2′-Dichloro-3′-(6-methoxy-5-((((5-oxopyrrolidin-2-yl)methyl)amino)methyl)pyridin-2-yl)-[1,1′-biphenyl]-3-yl)-3-((((1-(hydroxymethyl)cyclopropyl)methyl)amino)methyl)-4H-pyrido[1,2-a]pyrimidin-4-one] returned an IC50 of 40 nM. This IC50 is about 3.5-fold lower than that of the compound before.

The compound `Cc1c(-c2ccn3c(=O)c(CNC[C@@H]4CCC(=O)N4)cnc3c2)cccc1-c1cccc(-c2ccc3c(c2)CC(N)C3)c1Cl` (mixture of isomers) [Example 40, 8-(3′-(2-Amino-2,3-dihydro-1H-inden-5-yl)-2′-chloro-2-methyl-[1,1′-biphenyl]-3-yl)-3-(((((S)-5-oxopyrrolidin-2-yl)methyl)amino)methyl)-4H-pyrido[1,2-a]pyrimidin-4-one] returned an IC50 of 61 nM. This IC50 lies about 1.5-fold higher than the previous one.

With `COc1nc(-c2cccc(-c3cccc(-c4ccn5c(=O)c(CN6CC(CO)C6)cnc5c4)c3Cl)c2Cl)ccc1CN1CC(C(=O)O)C1` [Example 136, 1-((6-(2,2′-Dichloro-3′-(3-((3-(hydroxymethyl)azetidin-1-yl)methyl)-4-oxo-4H-pyrido[1,2-a]pyrimidin-8-yl)-[1,1′-biphenyl]-3-yl)-2-methoxypyridin-3-yl)methyl)azetidine-3-carboxylic acid], the IC50 came out at 0.2 nM.

In the case of `Cc1c(-c2ccn3c(=O)c(CNC[C@@H]4CCC(=O)N4)cnc3c2)cccc1-c1cccc(-c2ccc(CNC[C@@H]3CCC(=O)N3)cc2)c1Cl` [Example 65, 8-(2′-Chloro-2-methyl-4″-(((((S)-5-oxopyrrolidin-2-yl)methyl)amino)methyl)-[1,1′:3′,1″-terphenyl]-3-yl)-3-(((((S)-5-oxopyrrolidin-2-yl)methyl)amino)methyl)-4H-pyrido[1,2-a]pyrimidin-4-one], the IC50 was 5.6 nM.

`COc1nc(-c2cccc(-c3cccc(-c4cc5c(=O)n(C)c(CN6CC7(COC7)C6)nn5c4)c3Cl)c2Cl)ccc1CNC[C@@H]1CCC(=O)N1` [Example 447, 6-[2-Chloro-3-[2-chloro-3-[6-methoxy-5-[[[(2S)-5-oxopyrrolidin-2-yl]methylamino]methyl]-2-pyridyl]phenyl]phenyl]-3-methyl-2-(2-oxa-6-azaspiro[3.3]heptan-6-ylmethyl)pyrrolo[2,1-f][1,2,4]triazin-4-one]: the IC50 was 5 nM.

Compound `COc1nc(-c2cccc(-c3cccc(-c4ccn5c(=O)c(CNC6CCS(=O)(=O)CC6)cnc5c4)c3Cl)c2Cl)ccc1CNC[C@@H]1CCC(=O)N1` [Example 224, (S)-8-(2,2′-dichloro-3′-(6-methoxy-5-((((5-oxopyrrolidin-2-yl)-methyl)amino)-methyl)-pyridin-2-yl)-[1,1′-biphenyl]-3-yl)-3-(((1,1-dioxidotetrahydro-2H-thiopyran-4-yl)-amino)methyl)-4H-pyrido[1,2-a]-pyrimidin-4-one] came in with an IC50 of 2.8 nM. This IC50 lies about 1.8-fold lower than the previous one.

With `CN1CCC(NC[C@@H]2CCC(=O)N2)c2ccc(-c3cccc(-c4cccc(-c5ccc6c(n5)N(C)CCC6NC[C@@H]5CCC(=O)N5)c4Cl)c3Cl)nc21` (stereo partly drawn) [Example 42, (5S,5'S)-5,5′-((((2,2′-Dichloro-[1,1′-biphenyl]-3,3′-diyl)bis(1-methyl-1,2,3,4-tetrahydro-1,8-naphthyridine-7,4-diyl))bis(azanediyl))bis(methylene))bis(pyrrolidin-2-one)], half-maximal inhibition (IC50) required 2.3 nM. This IC50 and that of the compound before are within 1.5-fold of each other.

`COc1nc(-c2cccc(-c3cccc(-c4ccn5c(=O)c(CNCC(F)(F)F)cnc5c4)c3Cl)c2Cl)ccc1CNC[C@@H]1CCC(=O)N1` [Example 303, 8-[2-Chloro-3-[2-chloro-3-[6-methoxy-5-[[[(2S)-5-oxopyrrolidin-2-yl]methylamino]methyl]-2-pyridyl]phenyl]phenyl]-3-[(2,2,2-trifluoroethylamino)methyl]pyrido[1,2-a]pyrimidin-4-one] showed an IC50 of 0.4 nM.

`COC(=O)C[C@H](O)CNCc1nn2cc(-c3cccc(-c4cccc(-c5ccc(CNC[C@@H]6CCC(=O)N6)c(OC)n5)c4Cl)c3Cl)cc2c(=O)n1C` [Example 489, Methyl (3S)-4-[[6-[2-chloro-3-[2-chloro-3-[6-methoxy-5-[[[(2S)-5-oxopyrrolidin-2-yl]methylamino]methyl]-2-pyridyl]phenyl]phenyl]-3-methyl-4-oxo-pyrrolo[2,1-f][1,2,4]triazin-2-yl]methylamino]-3-hydroxy-butanoate] came in with an IC50 of 1500 nM.

Regarding `Cc1c(NC(=O)c2ccc(CNCCO)cn2)cccc1-c1cccc(-c2ccn3c(=O)c(CNCCO)cnc3c2)c1` [Example 2, 5-(((2-Hydroxyethyl)amino)methyl)-N-(3′-(3-(((2-hydroxyethyl)amino)methyl)-4-oxo-4H-pyrido[1,2-a]pyrimidin-8-yl)-2-methyl-[1,1′-biphenyl]-3-yl)picolinamide], inhibition was half-maximal at 79 nM (IC50). This IC50 lies about 19-fold lower than the previous one.

For the compound `COc1nc(-c2cccc(-c3cccc(-c4ccn5ncc(CNC[C@@H]6CCC(=O)N6)c5n4)c3Cl)c2Cl)ccc1CNC[C@@H]1CCC(=O)N1` [Example 282, (S)-5-((((6-(2,2′-Dichloro-3′-(3-(((((S)-5-oxopyrrolidin-2-yl)-methyl)amino)-methyl)-pyrazolo[1,5-a]pyrimidin-5-yl)-[1,1′-biphenyl]-3-yl)-2-methoxypyridin-3-yl)methyl)-amino)methyl)-pyrrolidin-2-one], the IC50 is 8.7 nM.

On to `COc1nc(-c2cccc(-c3cccc(-c4cn5c(CNC[C@@H]6CCC(=O)N6)cnc5cn4)c3Cl)c2Cl)ccc1CNC[C@@H]1CCC(=O)N1` [Example 309, (S)-5-((((6-(2,2′-Dichloro-3′-(3-(((((S)-5-oxopyrrolidin-2-yl)methyl)amino)methyl)imidazo[1,2-a]pyrazin-6-yl)-[1,1′-biphenyl]-3-yl)-2-methoxypyridin-3-yl)methyl)amino)methyl)pyrrolidin-2-one], for which the midpoint of inhibition, the IC50, lay at 0.3 nM.

`COC(=O)C[C@H](O)CNCc1cnc2cc(-c3cccc(-c4cccc(-c5cc(F)c(CNC[C@@H]6CCC(=O)N6)c(OC)n5)c4Cl)c3Cl)ccn2c1=O` [Example 271, Methyl (3S)-4-[[8-[2-chloro-3-[2-chloro-3-[4-fluoro-6-methoxy-5-[[[(2S)-5-oxopyrrolidin-2-yl]methylamino]methyl]-2-pyridyl]phenyl]phenyl]-4-oxo-pyrido[1,2-a]pyrimidin-3-yl]methylamino]-3-hydroxy-butanoate] returned an IC50 of 0.1 nM.

Compound `COc1nc(-c2cccc(-c3cccc(-c4ccc5c(CNC[C@H](C)OC)cn(C)c5n4)c3Cl)c2Cl)ccc1CNC[C@@H]1CCC(=O)N1` [Example 445, (5S)-5-[[[6-[2-Chloro-3-[2-chloro-3-[3-[[[(2S)-2-methoxypropyl]amino]methyl]-1-methyl-pyrrolo[2,3-b]pyridin-6-yl]phenyl]phenyl]-2-methoxy-3-pyridyl]methylamino]methyl]pyrrolidin-2-one] came in with an IC50 of 460 nM.

For `CCNc1nc(-c2cccc(-c3cccc(-c4ccn5c(=O)c(CNC[C@@H]6CCC(=O)N6)cnc5c4)c3C)c2Cl)ccc1CNC[C@@H]1CCC(=O)N1` [Example 74, 8-(2′-Chloro-3′-(6-(ethylamino)-5-(((((S)-5-oxopyrrolidin-2-yl)methyl)amino)methyl)pyridin-2-yl)-2-methyl-[1,1′-biphenyl]-3-yl)-3-(((((S)-5-oxopyrrolidin-2-yl)methyl)amino)methyl)-4H-pyrido[1,2-a]pyrimidin-4-one], the IC50 worked out at 15 nM.
